# Reference: patent US8653046B2, “Controlling transgene expression across the skin” (ETH Zurich, priority 2009, dated 2014)
# Key:
# TtgA1 (TtgR-VP16) [1] = target: T1, TtgA1 (TtgR-VP16) (Pseudomonas putida, UniProt Q9AIU0); assay: Compatibility test: phloretin-responsive SEAP production of CHO-PEACE8; type: cell-based, Pseudomonas putida DOT-T1E; design: expressed in transfected cells; host or cells: CHO-K1 (transient pMG11 or pMG13); also HEK-293, BHK-21, COS-7, HaCaT, HT-1080, NIH/3T3, primary human fibroblasts and keratinocytes; conditions: Phl 50 μM, 48 h, 100 = no inducer
# T1 sequence (Q9AIU0 whole entry, added parts left off): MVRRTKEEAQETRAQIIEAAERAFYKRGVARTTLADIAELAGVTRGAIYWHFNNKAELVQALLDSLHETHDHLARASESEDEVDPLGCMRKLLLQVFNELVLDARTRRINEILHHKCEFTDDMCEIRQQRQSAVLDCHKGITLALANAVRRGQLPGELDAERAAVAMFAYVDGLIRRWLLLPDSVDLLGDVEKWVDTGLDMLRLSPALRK
# Description: (§1) To evaluate the functional compatibility of PEACE with the established tetracycline— [TETOFF; Gossen M., Bujard H., 1992, Proc Natl Acad Sci USA 89(12):5547-5551] and macrolide— [EOFF; Weber W., et al., 2002, Nat Biotechnol 20(9):901-907] responsive expression circuits CHO-PEACE8 is transiently transfected, transgenic for phloretin-responsive SEAP expression, with either the TETOFF-(pSAM200, PSV40-tTA-pA; pBP99, PhCMV*-1-SAMY-pA) or the EOFF-(PWW35, PSV40-ET1-pA; pBP100, PETR3-SAMY-pA) system set to control the Bacillus stearothermophilus-derived secreted α-amylase (SAMY) in response to tetracycline and erythromycin, respectively. SEAP and SAMY expression are scored 48 h after cultivation of the transfected populations in the presence (50 μM; 2 μg/mL) or absence of the inducer molecules (phloretin, tetracycline, erythromycin).
# The stable CHO-PEACE8 cell line, transgenic for phloretin-controlled SEAP expression, is constructed in two steps: (i) CHO-K1 cells are co-transfected with pMG11 (PSV40-TtgA1-pA) and pSV2neo (Clontech, Cat. No. 6172-1) at a ratio of 20:1 and clonal selection results in the cell line CHO-TtgA. (ii) CHO-TtgA is co-transfected with pMG10 (PTtgR1-SEAP-pA) and pPur (Clontech, Cat. No. 6156-1) (ratio of 20:1) and the phloretin-responsive SEAP-producing double-transgenic cell line CHO-PEACE8 is chosen after clonal selection. […] Reversibility of phloretin-mediated SEAP production is assessed by cultivating CHO-PEACE8 (100,000 cells/mL) for 144 h while alternating phloretin concentrations from 0 to 50 μM every 48 h.
# [2] = test system: macrolide-responsive control system (ET1, E-VP16; PETR3-SAMY-pA); assay: Compatibility test: macrolide-responsive (EOFF) SAMY production in CHO-PEACE8 (pWW35, pBP100); type: cell-based; conditions: CHO-PEACE8 transiently transfected with macrolide-responsive control system; Phl 50 μM, EM 2 μg/mL; 48 h; 100 = no inducer
# Description: as §1
# [3] = target: T2, tetracycline-responsive control system (PSV40-tTA-pA; PhCMV*-1-SAMY-pA) (Escherichia coli, UniProt P04483); assay: Compatibility test: tetracycline-responsive (TETOFF) SAMY production in CHO-PEACE8 (pSAM200, pBP99); type: cell-based; conditions: CHO-PEACE8 transiently transfected with tetracycline-responsive control system; Phl 50 μM, Tet 2 μg/mL; 48 h; 100 = no inducer
# T2 construct: expressed in transfected cells; host or cells: CHO-PEACE8 transiently transfected with pSAM200 and pBP99
# T2 sequence (P04483 whole entry, added parts left off): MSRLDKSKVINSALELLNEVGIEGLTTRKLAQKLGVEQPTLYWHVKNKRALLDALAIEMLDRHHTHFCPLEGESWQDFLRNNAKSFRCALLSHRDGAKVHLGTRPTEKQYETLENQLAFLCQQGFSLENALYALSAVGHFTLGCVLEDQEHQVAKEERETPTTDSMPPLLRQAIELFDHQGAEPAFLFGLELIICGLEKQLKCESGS
# Description: as §1
# CHO-K1 = assay: Toxicity of flavonoids: CHO-K1 transiently transfected with pSEAP2-Control, SEAP levels after 48 h; conditions: 0, 25, 50 μM, genistein cytotoxic only at 50 μM
# Method: (A) Toxicity of flavonoids. CHO-K1 are transiently transfected with pSEAP2-Control, and cultivated in medium supplemented with different flavonoids (0, 25, 50 μM). SEAP levels are scored after 48 h.
# (§2) CHO-K1 are transiently (co-)transfected with either pMG10 (PTtgR1-SEAP-pA) and pMG11 (PSV40-TtgA1-pA), to score regulation performance, or with pSEAP2-Control (PSV40-SEAP-pA), to assess compound-related cytotoxicity, and then cultivated for 48 h in medium containing different concentrations (0, 25, 50 μM) of specific flavonoid type compounds (berberine, butylparaben, genistein, luteolin, β-naphthol, naringenin, phloretin, phloridzin or quercetin) before SEAP production is profiled (FIG. 5A).
# Wild-type Chinese hamster ovary cells (CHO-K1, ATCC: CCL-61) and their derivatives are cultivated in standard medium: ChoMaster® HTS (Cell Culture Technologies, Gravesano, Switzerland) supplemented with 5% (v/v) fetal calf serum (FCS, PAN Biotech GmbH, Aidenbach, Germany, Cat. No. 3302, Lot No. P251110) and 1% (v/v) penicillin/streptomycin solution (Sigma, St Louis, Mo., USA, Cat. No. P4458). Human embryonic kidney cells (HEK-293, Mitta B., et al., 2002, Nucleic Acids Res 30(21):e113), African green monkey kidney cells (COS-7, ATCC: CRL-1651), baby hamster kidney cells (BHK-21, ATCC: CCL10), human fibrosarcoma cells (HT-1080, ATCC: CCL-121), the human keratinocyte cell line HaCaT (Boukamp P., et al., 1988, J Cell Biol 106(3):761-771) and mouse fibroblasts (NIH/3T3, ATCC: CRL-1658) are cultured in Dulbecco's modified Eagle's medium (DMEM; Invitrogen, Cat. No. 52100-39) supplemented with 10% FCS (v/v) and 1% (v/v) penicillin/streptomycin solution. Primary human foreskin fibroblasts are cultivated in DMEM supplemented with 20% FCS (v/v) and 1% (v/v) penicillin/streptomycin solution and primary human foreskin keratinocytes are cultured in chemically defined serum-free keratinocyte medium (Invitrogen, Cat. No. 10744019). All cell types are cultivated at 37° C. in a 5% CO2-containing humidified atmosphere. For transient transfection of CHO-K1, 1 μg of total plasmid DNA (for co-transfection an equal amount of each plasmid) is transfected into 50,000 cells per well of a 24-well plate according to an optimized calcium phosphate protocol (Greber D., Fussenegger M., 2007, Biotechnol Bioeng 96(5):821-834). Plasmid DNA is diluted to a total volume of 25 μL 0.5 M CaCl2 solution, which is mixed with 25 μL 2×HBS solution (50 mM HEPES, 280 mM NaCl, 1.5 mM Na2HPO4, pH 7.1). After incubation for 15 min at room temperature, the precipitates are immediately added to the well and centrifuged onto the cells (5 min at 1,200×g) to increase transfection efficiency. After 3 h, the cells are treated with 0.5 mL glycerol solution (ChoMaster® HTS medium containing 15% glycerol) for 60 sec. After washing once with phosphate-buffered saline (PBS, Dulbecco's Phosphate-Buffered Saline; Invitrogen, Cat. No. 21600-0069), cells are cultivated in 0.5 mL standard ChoMaster® HTS medium in the presence or absence of different concentrations of phloretin. For transfection of BHK-21, COS-7 and HEK-293, plasmid DNA-Ca2PO4 precipitate is prepared and applied to the cells as described above. HEK-293 and COS-7 cells are washed once with PBS after 3 h incubation with the DNA-Ca2PO4 precipitate and subsequently cultivated in standard DMEM, while BHK-21 cells are incubated overnight with the precipitates and then cultivated in DMEM medium after being washed once with PBS. […]
# TtgA1 (TtgR-VP16) [4] = target: T1, TtgA1 (TtgR-VP16); assay: PEACE: SEAP expression after transient co-transfection of pMG10 (PTtgR1-SEAP-pA) and pMG11 (PSV40-TtgA1-pA); type: cell-based; conditions: CHO-K1, 0, 25, 50 μM, 48 h
# Description: Living in the plant rhizosphere, Pseudomonas putida DOT-T1E has evolved resistance to a variety of plant-derived antimicrobials, which is triggered by phloretin-induced release of TtgR protein from the operator (OTtgR) of its target promoter and subsequent induction of a broadly specific TtgABC efflux pump (Teran W. et al., loc. cit.).
# Three different transactivators are designed, harboring either the VP16 (TtgA1; pMG11, TtgR-VP16) (Triezenberg S. J. et al., loc. cit.), the p65 (TtgA2; pMG18, TtgR-p65) (Urlinger S., et al., 2000, Gene 247(1-2):103-110) or the human E2F4 (TtgA3; pMG19, TtgR-E2F4) (Akagi K., Kanai M., Saya H., Kozu T., Berns A., 2001, Nucleic Acids Res 29(4):e23) transactivation domains. pMG11, pMG18 or pMG19 are co-transfected with pMG10 (PTtgR1-SEAP-pA) into CHO-K1, HEK-293 as well as primary human fibroblasts and keratinocytes, and SEAP expression is profiled after 48 h of cultivation in the presence or absence of 50 μM phloretin.
# as §2
# Wild-type Chinese hamster ovary cells (CHO-K1, ATCC: CCL-61) and their derivatives are cultivated in standard medium: ChoMaster® HTS (Cell Culture Technologies, Gravesano, Switzerland) supplemented with 5% (v/v) fetal calf serum (FCS, PAN Biotech GmbH, Aidenbach, Germany, Cat. No. 3302, Lot No. P251110) and 1% (v/v) penicillin/streptomycin solution (Sigma, St Louis, Mo., USA, Cat. No. P4458). Human embryonic kidney cells (HEK-293, Mitta B., et al., 2002, Nucleic Acids Res 30(21):e113), African green monkey kidney cells (COS-7, ATCC: CRL-1651), baby hamster kidney cells (BHK-21, ATCC: CCL10), human fibrosarcoma cells (HT-1080, ATCC: CCL-121), the human keratinocyte cell line HaCaT (Boukamp P., et al., 1988, J Cell Biol 106(3):761-771) and mouse fibroblasts (NIH/3T3, ATCC: CRL-1658) are cultured in Dulbecco's modified Eagle's medium (DMEM; Invitrogen, Cat. No. 52100-39) supplemented with 10% FCS (v/v) and 1% (v/v) penicillin/streptomycin solution. Primary human foreskin fibroblasts are cultivated in DMEM supplemented with 20% FCS (v/v) and 1% (v/v) penicillin/streptomycin solution and primary human foreskin keratinocytes are cultured in chemically defined serum-free keratinocyte medium (Invitrogen, Cat. No. 10744019). All cell types are cultivated at 37° C. in a 5% CO2-containing humidified atmosphere.
SMILES,compound-related cytotoxicity / cell viability (CHO-K1),PEACE regulation performance (SEAP production) (TtgA1 (TtgR-VP16) [4]),further results
"CC[C@H]1OC(=O)[C@H](C)[C@@H](O[C@H]2C[C@@](C)(OC)[C@@H](O)[C@H](C)O2)[C@H](C)[C@@H](O[C@@H]2O[C@H](C)C[C@H](N(C)C)[C@H]2O)[C@](C)(O)C[C@@H](C)C(=O)[C@H](C)[C@@H](O)[C@]1(C)O [EM, erythromycin]",,,"Relative SEAP Production (%) (TtgA1 (TtgR-VP16) [1]; CHO-PEACE8 transiently transfected with macrolide-responsive control system, EM 2 μg/mL): 102.7 ± 5.3%; Relative SAMY Production (%) [2]: 1.5 ± 1.8%"
"CN(C)[C@@H]1C(O)=C(C(N)=O)C(=O)[C@@]2(O)C(O)=C3C(=O)c4c(O)cccc4[C@@](C)(O)[C@H]3C[C@@H]12 [Tet, tetracycline]",,,"Relative SAMY Production (%) [3]: 3.0 ± 0.4%; Relative SEAP Production (%) (TtgA1 (TtgR-VP16) [1]; CHO-PEACE8 transiently transfected with tetracycline-responsive control system, Tet 2 μg/mL): 93.2 ± 3.8%"
COc1ccc2cc3[n+](cc2c1OC)CCc1cc2c(cc1-3)OCO2 [berberine],do not reduce cell viability,fails to control PEACE,
"CCCCOC(=O)c1ccc(O)cc1 [butylparaben, butyl 4-hydroxybenzoate]",do not reduce cell viability,able to regulate but not fully repress SEAP production,
O=c1c(-c2ccc(O)cc2)coc2cc(O)cc(O)c12 [genistein],cytotoxic,,
O=C1C[C@@H](c2ccc(O)cc2)Oc2cc(O)cc(O)c21 [naringenin],cytotoxic,,
